Structures can show the parent of a compound that is named as a salt. Where two headings read alike, the source gives them in different places.
Assays:
[1] = target: BIR3 domain of human XIAP (residues 252-350) (Homo sapiens (Human), UniProt P98170); assay: XIAP in vitro competitive displacement binding assay (fluorescence polarization); conditions: for IC50: read-out: IC50 or PI Xiap: IC50; for inhibition at 0.04 µM: 1 h, read-out: IC50 or PI Xiap: PI
[2] = target: BIR3 domain of human cIAP-1 (residues 267-363) (Homo sapiens (Human), UniProt Q13490); assay: cIAP-1 in vitro competitive displacement binding assay (fluorescence polarization; Probe A AVPIK(5&6FAM)-amide or Probe B AbuRPFK(5&6FAM)-amide); conditions: for IC50: read-out: IC50 or PI cIAP1: IC50
[3] = test system: EVSA-T (human breast carcinoma); assay: Anti-proliferative activity, Alamar Blue assay, EVSA-T; assay type: cell-based; conditions: Homo sapiens
[4] = test system: MDA-MB-231 (human breast carcinoma); assay: Anti-proliferative activity, Alamar Blue assay, MDA-MB-231; assay type: cell-based; conditions: read-out: EC50, inhibition of cell growth
[5] = EVSA-T cell line, 72 hours, Alamar Blue, read-out: EC50, inhibition of cell growth
[6] = EVSA-T, 72 hours, Alamar Blue, read-out: EVSA-T prolif (EC50)
[7] = MDA-MB-231 cell line, 72 hours, Alamar Blue
[8] = EVSA-T, 72 h, read-out: EVSA-T prolif (EC50)

Row | SMILES | IC50 [1] | IC50 ([2]; Probe B AbuRPFK(5&6FAM)-amide) | EC50 [3, 5] | EC50 [3, 6] | EC50 [4, 7] | inhibition at 0.04 µM ([1]; @ 0.04 μM) | inhibition at […] ([2]; 3 h, Probe B, @ 0.012 μM, read-out: IC50 or PI cIAP1: PI) | IC50 [2] | EC50 [3, 8] | EC50 ([4]; MDA-MB-231, 72 h) | inhibition at 0.04 µM [1]
1 | COC[C@H]1CN[C@H](C)CN1CC(=O)N1CC(C)(C)c2cnc(Oc3c(C)cccc3Cl)cc21 [Example 130, 1-[6-(2-Chloro-6-methylphenoxy)-3,3-dimethyl-1H,2H,3H-pyrrolo[3,2-c]pyridin-1-yl]-2-[(2R,5R)-2-(methoxymethyl)-5-methylpiperazin-1-yl]ethan-1-one hydrochloride] | 0.2 µM | 0.044 µM | < 10 µM | 0.23 µM | < 10 µM | – | – | – | – | – | –
2 | COC[C@H]1CN[C@H](C)CN1CC(=O)N1CC(C)(C)c2cnc(-c3cc4ccccc4o3)cc21 [Example 150, 1-[6-(1-Benzofuran-2-yl)-3,3-dimethyl-1H,2H,3H-pyrrolo[3,2-c]pyridin-1-yl]-2-[(2R,5R)-2-(methoxymethyl)-5-methylpiperazin-1-yl]ethan-1-one dihydrochloride] | 0.27 µM | – | – | – | – | – | – | 0.014 µM | 0.73 µM | < 10 µM | –
3 | C[C@@H]1CN(CC(=O)N2CC(C)(C)c3cnc(Oc4ccccc4Cl)cc32)[C@@H](C(=O)N(C)C)CN1 [Example 151, (2R,5R)-1-{2-[6-(2-Chlorophenoxy)-3,3-dimethyl-1H,2H,3H-pyrrolo[3,2-c]pyridin-1-yl]-2-oxoethyl}-N,N,5-trimethylpiperazine-2-carboxamide dihydrochloride] | – | – | – | – | – | – | – | 0.019 µM | 0.59 µM | < 10 µM | 48%

The next lines start with results.

Row | IC50 [1] | IC50 ([2]; Probe B AbuRPFK(5&6FAM)-amide) | EC50 [3, 5] | EC50 [3, 6] | EC50 [4, 7] | inhibition at 0.04 µM ([1]; @ 0.04 μM) | inhibition at […] ([2]; 3 h, Probe B, @ 0.012 μM, read-out: IC50 or PI cIAP1: PI) | SMILES | IC50 [2] | EC50 [3, 8] | EC50 ([4]; MDA-MB-231, 72 h) | inhibition at 0.04 µM [1]
4 | 0.38 µM | 0.12 µM | < 10 µM | 1.1 µM | < 10 µM | – | – | COC[C@H]1CN[C@H](C)CN1CC(=O)N1CC(C)(C)c2cnc(Oc3c(F)cccc3F)cc21 [Example 128, 1-[6-(2,6-Difluorophenoxy)-3,3-dimethyl-1H,2H,3H-pyrrolo[3,2-c]pyridin-1-yl]-2-[(2R,5R)-2-(methoxymethyl)-5-methylpiperazin-1-yl]ethan-1-one hydrochloride] | – | – | – | –
5 | 0.24 µM | 0.012 µM | – | 0.73 µM | < 10 µM | – | – | COC[C@H]1CN[C@H](C)CN1CC(=O)N1CC(C)(c2ccccn2)c2ccc(Cc3ccccc3)cc21 (stereo partly drawn) [Example 144, 1-[6-Benzyl-3-methyl-3-(pyridin-2-yl)-2,3-dihydro-1H-indol-1-yl]-2-[(2R,5R)-2-(methoxymethyl)-5-methylpiperazin-1-yl]ethan-1-one hydrochloride] | – | – | – | –
6 | – | – | < 10 µM | 0.067 µM | < 10 µM | 73% | 62% | C[C@@H]1CN(CC(=O)N2CC(C)(C)c3cnc(Oc4ccccc4Cl)cc32)[C@@H](CN2CCCC2=O)CN1 [Example 182, 1-{[(2R,5R)-1-{2-[6-(2-Chlorophenoxy)-3,3-dimethyl-1H,2H,3H-pyrrolo[3,2-c]pyridin-1-yl]-2-oxoethyl}-5-methylpiperazin-2-yl]methyl}pyrrolidin-2-one hydrochloride] | – | – | – | –

Reference: US9018214B2, “Bicyclic heterocycle compounds and their uses in therapy” (Astex Therapeutics Limited, priority 2011, dated 2015)
